Experimental data: patent publication US6630583B1, “Antibiotics and methods of using the same” (priority 1998, dated 2003)
“Also recorded” adds a separate entry of the source.

Tests used:
pneumococcal strain R6 = test: Cell growth curves (OD 620 nm) and viability of R6 with peptide; type: cell-based, Streptococcus pneumoniae; conditions: for ability to inhibit R6 growth: peptides at 100 μM added to growing R6 at OD 620 nm of 0.1
Experimental: (§1) Cell growth curves were performed in the presence or absence of the test reagents as specified. In short, samples were prepared as follows: 1 ml of a pneumococcus culture was placed into 10 ml of prewarmed Semisynthetic (C+Y) medium. The optical density (OD) of the bacteria was monitored at 620 nm until an OD of approximately 0.1 was reached. At this point the test reagents were administered to the samples. The cells were cultured for up to 11 hours at 37° Celsius, and the OD at 620 nm was monitored every hour. A decrease in OD 620 is indicative of cell lysis, an increase is indicative of bacterial growth. No change in optical density indicates growth inhibition.
To characterize the antibacterial activity of the peptide, pneumococcal strain R6 which is sensitive to penicillin was exposed to 0.1 mM of the peptide having the amino acid sequence of SEQ ID NO:2 at an optical density of 0.01 (bacterial density of 3×10^6 cfu/ml). Bacterial growth as measured by optical density was followed for 11 hours and viability was assessed by plating on blood agar. […] Four hours after the start of the experiment, the control strain grew from 3×10^6 to 1.2×10^7 cfu/ml. In contrast, four hours after addition of the peptide, the viable bacterial number decreased from 3×10^6 to 3×10^4 CFU/ml (10^3-fold lower than the control).
The fact that the peptide is active in the range below 1 μg/ml places the potency of its antibacterial effect in the same range as conventional antibiotics.
R6 with no peptide was the control and underwent exponential growth. […] This enhanced activity may result from an improvement in folding of the peptide or greater access to the bacterial target.

Orf W1 mutant = test: Phenotypes of the mutants: lysis by penicillin, vancomycin, DOC; type: cell-based, S. pneumoniae
Experimental: (§2) Construction of mutations: Insertion duplication mutagenesis was carried out using PCR to generate gene fragments for homologous recombination proximal to the amino terminus of OrfW1, HK or RR as follows:
(§3) Phenotypes of the mutants: The mutants were assessed for various physiological functions characteristic of pneumococci. This included lysis by penicillin, vancomycin, and the detergent deoxycholate (DOC). Other capabilities tested included ability to undergo natural DNA transformation (Transform) and expression of the LytA protein as assessed by Western blot.

HK mutant = test: as above; type: cell-based, S. pneumoniae
Experimental: as §2, §3

RR mutant = test: as above; type: cell-based, S. pneumoniae
Experimental: as §2, §3

HK mutant Van S = test: Lysis of HK mutant; type: cell-based, pneumococcus; conditions: 10×MIC of penicillin and/or 0.5 mM peptide
Experimental: (§4) FIGS. 11A-11B show the effects of 10×MIC of penicillin and/or 0.5 mM of the peptide having the amino acid sequence of SEQ ID NO:2 on the lysis of clinical isolate F79 cells (FIG. 11A) and HK mutant VanS cells (FIG. 11B).
(§5) F79 is a natural isolate of pneumococcus with mutations in the HK and the ABC transporter genes as determined by SSCP (see Example 11).

[1] = system: loss of function mutants of the ABC transporter and RR/HK; test: Tolerance of loss of function mutants; type: cell-based, S. pneumoniae; conditions: growth inhibitory concentrations
Excerpt: As described in Example 6, using insertion duplication mutagenesis, loss of function mutations were obtained in each of the 3 open reading frames of the ABC transporter and each of the two parts of the RR/HK. […] These parallel phenotypes further implicate these topographically close genes in a common pathway.
Vancomycin is the only antibiotic that maintains efficacy against many strains of highly antibiotic resistant bacteria, such as staphylococci, enterococci and pneumococci. Escape from antibiotic activity of vancomycin has been detected in rare staphylococci and enterococci but not in pneumococci as yet. […] Infect. Dis. J., 12:196-200 (1993); Marton et al., J. Infect. Dis., 163:542-8 (1991); and Bradley et al., Pediatr. Infect. Dis., 14:1037-1041 (1995)]. […] If they created a phenotype which was corrected by exogenous peptide, they may participate in the biological activity of the peptide. For instance, the ABC transporter may transport the peptide and the HK may serve as an extracellular receptor for the peptide which then changes the behavior of the bacteria (i.e., killing) via a RR signal.

mutant SPSJ01 = test: Screen of library of loss of function mutants for antibiotic tolerance; type: cell-based, pneumococcus
Excerpt: To detect genes that are part of the trigger pathway of the pneumococcal autolysin a library of loss of function mutants has been created, which was screened for antibiotic tolerance [Pearce et al., Mol. Microbiol., 9:1037-1050 (1993)]. […] It is reasonable to assume that this two component system represents the start of the pneumococcal autolytic trigger pathway, functioning as a relay station reacting to cell density signals or the binding of antibiotics to penicillin binding proteins. Similar to the enterococcal histidine kinase VanSB, the pneumococcal VncS works most likely as a kinase/phosphatase (see Example 1, above).

clinical isolate F79 = test: Lysis of tolerant clinical isolate; type: cell-based, pneumococcus; conditions: 10×MIC of penicillin and/or 0.5 mM peptide
Experimental: as §4, §5

clinical isolate A144 [2] = test: Cell viability (CFU/ml) one hour after addition; type: cell-based, pneumococcus; conditions: 10×MIC of penicillin, 1×MIC of vancomycin or 0.4 mM peptide
Excerpt: (§6) Tolerance to penicillin occurs in bacteria that fail to trigger autolysins in response to the drug. […] This is a mechanism of resistance to these drugs and is a serious emerging medical problem. […] However, one pneumococcal strain that fails to lyse and dies slowly in response to both penicillin and vancomycin is the clinical isolate A144. This combination of traits makes A144 recalcitrant to therapy. FIG. 8 compares the activity of penicillin, vancomycin, and the peptide having the amino acid sequence of SEQ ID NO:2 against a classical sensitive strain, R6, and the tolerant strain A144. […] In contrast, strain A144 loses only 0.5 logs of viability in the same time period for all three therapies. […] Thereafter the bacteria grew more slowly than untreated controls.

[3] = system: pneumococcus R6 in medium lacking lysine; test: Phenotypic tolerance: lysis under starvation conditions; type: cell-based; conditions: for lysis response of non-growing bacteria: 10×MIC of penicillin and/or 0.5 mM peptide
Excerpt: When bacteria grow slowly or stop growing due to nutrient deprivation, they become tolerant to antibiotics of all classes. […] This prolongs the course of antibiotics needed to treat these infections. For instance, many weeks of therapy are required to treat endocarditis and osteomyelitis secondary to slowly growing bacteria. An in vitro example of phenotypic tolerance is shown in FIG. 10 where pneumococcus R6 has been transferred at time 0 to a medium lacking the essential amino acid lysine. Penicillin was added 5 min after the transfer. […] This same response is seen with the peptide having the amino acid sequence of SEQ ID NO:2.

[4] = system: leucine deprived R6 cells; test: Stringent response: lysis after leucine deprivation; type: cell-based, S. pneumoniae
Experimental: P27 and the stringent response mechanism: The stringent response is believed to prevent the death pathway. To clarify the relationship of the stringent response to P27 activity, protein synthesis of R6 was inhibited by leucine deprivation and the effect of P27 was monitored (FIG. 19). […] The minimum concentration of penicillin required to cause penicillin dependent autolysis was equal to its MIC ([…]).

[5] = system: autolysin deficient strain Lyt 4-4; test: Growth and killing of autolysin deficient strain; type: cell-based, Streptococcus pneumoniae; conditions: Lyt 4-4, 0.1 mM peptide
Experimental: The addition of the additives were made at time “0” hours. The strain of bacteria cultured was the Lyt-4-4 strain of Streptococcus pneumoniae which harbors a mutation leading to the loss of LytA activity. The peptide having the amino acid sequence of SEQ ID NO:2 was added as indicated at a concentration of 0.1 mM. Lyt-4-4 lacks active autolysin LytA and is therefore tolerant to penicillin treatment.
as §1
This antibacterial effect was also demonstrable in bacteria mutated so as to prevent autolysis by point mutation in the autolysin, as in the autolysin deficient strain Lyt 4-4. […]

clinical isolate A144 [6] = test: Growth of the clinical isolate; type: cell-based, pneumococcus; conditions: 0.1 mM peptide added early in the growth cycle
Excerpt: as §6

Lyt 4-4 = test: Loss of chain formation (morphology); type: cell-based, Streptococcus pneumoniae; conditions: Lyt 4-4, 0.5 mM peptide in the medium
Excerpt: Loss of chain formation is a measure of antibacterial activity independent of autolysin.
Strains of pneumococcus that are tolerant to penicillin, such as Lyt 4-4, grow in long chains as compared to the diplococcal morphology of wild type pneumococci. FIG. 6A illustrates these chains, which extend to 30-50 bacteria in length.
P27 is capable of triggering different autolytic pathways: To identify the relationship between P27 and the activation of the autolysin LytA, the bactericidal effect of the peptide on the pneumococcal mutant Lyt-4-4 (which is deficient in the major autolysin), was investigated. […] Compared to the diplococcal morphology of wild type pneumococci, pneumococci lacking an active autolysin grow in long chains.

RR/HK mutants = test: Antibacterial activity of the peptide in the mutants; type: cell-based, S. pneumoniae; conditions: peptide added exogenously
Excerpt: (§7) To test this hypothesis the ability of the peptide having the amino acid sequence of SEQ ID NO:2 to maintain antibacterial activity in the mutants was examined. […] Furthermore, bacteria which are tolerant by virtue of phenotypic tolerance due to slow growth rate or mutations in genes other than the RR/HK will be susceptible to the antibacterial effect of the peptide having the amino acid sequence of SEQ ID NO:2.

mutant in ORF W1 = test: as above; type: cell-based, S. pneumoniae; conditions: mutant in ORF W1, peptide added from the outside
Excerpt: as §7

MRKEFHNVLSSGQLLADKRPARDAN [Peptide 2]
ability to inhibit R6 growth (pneumococcal strain R6): greatly decreased anti-bacterial activity

deoxycholate [DOC]
Lysis by (Orf W1 mutant): no
Lysis by (HK mutant): yes
Lysis by (RR mutant): yes

MRKEFHNVLSAGQLLADKRPARDYN [Peptide 3]
ability to inhibit R6 growth (pneumococcal strain R6): greatly enhanced antibacterial effect

LADKRPARDYN (listed as Streptococcus pneumoniae) [Peptide 5]
ability to inhibit R6 growth (pneumococcal strain R6): Exponential growth equal to untreated bacteria

CC1(C)S[C@@H]2[C@H](NC(=O)Cc3ccccc3)C(=O)N2[C@H]1C(=O)O [penicillin, benzylpenicillin]
lysis of Van S (HK mutant Van S): tolerance
tolerance (lysis and death) [1]: failed to lyse and die
death in the presence of antibiotic (mutant SPSJ01): failed to die
lysis of F79 (clinical isolate F79): tolerant
loss of viability (clinical isolate A144 [2]): 0.5 logs
viability of non-growing bacteria ([3]; 10×MIC of penicillin): unaffected
lysis response of non-growing bacteria [3]: only a minimal response
time to lysis of R6 (pneumococcal strain R6; growing R6, penicillin at 10×MIC): within one hour
lysis of R6 under leucine deprivation ([4]; 10×MIC of penicillin or vancomycin, 0.2 mM P27, or combination): neither the addition of 10×the MIC of penicillin or vancomycin nor the addition of 0.2 mM P27 resulted in lysis
minimum concentration of penicillin required to cause penicillin dependent autolysis ([4]; leucine deprived R6, in combination with P27): 0.1 mg/mL
Lysis by (Orf W1 mutant): tolerant
Lysis by (HK mutant): tolerant
Lysis by (RR mutant): sensitive

MRKEFHNVLSSGQL (listed as Streptococcus pneumoniae) [Peptide 4]
ability to inhibit R6 growth (pneumococcal strain R6): Exponential growth equal to untreated bacteria

MRKEFHNVLSSGQLLADKRPARDYN (listed as Streptococcus pneumoniae) [Peptide 1]
lysis of Van S (HK mutant Van S): not responsive
loss of viability (clinical isolate A144 [2]): 0.5 logs
bactericidal activity [5]: demonstrable
lysis response of non-growing bacteria [3]: same response
Bacterial growth as measured by optical density (pneumococcal strain R6; R6, 0.1 mM peptide, followed for 11 hours): completely inhibited growth
viable number, fold lower than the control (pneumococcal strain R6; R6, 0.1 mM peptide, four hours): 10^3 fold
viable bacterial number (pneumococcal strain R6; R6, 0.1 mM peptide, four hours after addition, start 3×10^6): 3×10^4 CFU/ml
lysis (pneumococcal strain R6; R6, 0.1 mM peptide, listed as SEQ ID NO:2): without substantial cell lysis; also recorded: No lysis was detected
minimum effective concentration (MEC) (pneumococcal strain R6; R6, converted with molecular weight 2940): 0.15 to 0.3 µg/mL
minimum effective concentration (pneumococcal strain R6; R6, optical density over 4 hours): 50 to 100 nM
dose dependence of antibacterial activity (pneumococcal strain R6; R6, various amounts of peptide, 4 hours): dose dependent antibacterial activity
ability to inhibit R6 growth (pneumococcal strain R6): significant delay in the onset of bacterial growth
growth of strain A144 (clinical isolate A144 [6]): significantly inhibits the growth of strain A144 for 4 hours
chain formation (Lyt 4-4; listed as SEQ ID NO.2): dissolution of the chains
chain formation (Lyt 4-4; listed as SEQ ID NO:2): reversion of the chains to diplococci
growth inhibition (RR/HK mutants): did not function to inhibit the growth
growth inhibition (mutant in ORF W1): not able to inhibit growth

MEFMRKEFHNVLSSGQLLADKRPARDYN (listed as Streptococcus pneumoniae) [SEQ ID NO:12]
antibacterial activity against R6 (pneumococcal strain R6): no antibacterial activity
